The values below come from patent US9371281B2, “Indole derivatives as inhibitors of histone deacetylase” (Pharmacyclics LLC, priority 2006, dated 2016).

Assay [1] concerns normal human peripheral blood mononuclear cells. Put plainly: Cell proliferation, Alamar Blue assay (FIG. 9B). It counts as cell-based. The conditions noted are these: PBMCs, 24 hours.
Assay [2] concerns A549 (lung). The experiment in a line: Apoptosis in solid tumor cells, Annexin V assay. It counts as cell-based.
In assay [3] the test system is HCT116 (colon). Put plainly: Apoptosis in solid tumor cells, Annexin V assay. It counts as cell-based, human.
The test system of assay [4] is U87 (glioma). Put plainly: Apoptosis in solid tumor cells, Annexin V assay. It counts as cell-based.
Assay [5] deals with RKO (colon). The experiment in a line: Apoptosis in solid tumor cells, Annexin V assay. The class given is cell-based.
Assay [6] concerns MCF-7 (breast). Put plainly: Apoptosis in solid tumor cells, Annexin V assay. The class given is cell-based.
Assay [7] relates to PC3 (prostate). The experiment in a line: Apoptosis in solid tumor cells, Annexin V assay. The class given is cell-based.
Assay [8] concerns Ovcar-3 (ovarian). Put plainly: Apoptosis in solid tumor cells, Annexin V assay. The class given is cell-based.
The test system of assay [9] is Jurkat. Put plainly: Apoptosis in T-cell lines, Annexin-V positive cells by flow cytometry. The class given is cell-based. The conditions noted are these: 3 Day dose. (In general: A flow cytometer gives signals particle by particle.)
Assay [10] deals with J.γ1. The assay is described as above. As to conditions: 3 Day dose. The class given is cell-based.
Assay [11] relates to P116. Described as above. The class given is cell-based. The conditions noted are these: 3 Day dose.
For assay [12], the system named is J.RT3-T.5. The assay is described as above. As to conditions: 3 Day dose. It counts as cell-based.
In assay [13] the test system is Jurkat cells. Put plainly: Compound 23 induced apoptosis with Ca2+ effectors. The class given is cell-based. From the text: […]. […] […].
The test system of assay [14] is Cytochrome C translocation in Jurkat cells. Put plainly: Cytochrome C translocation, Western blotting of mitochondrial and cytosolic fractions. It counts as cell-based. As to conditions: 12 or 24 hours.
Assay [15] deals with IL-1b secretion in human PBMCs. The experiment in a line: Inhibition of IL-1b secretion in human PBMCs. It counts as cell-based. The conditions noted are these: FIG. 11. As for the experimental part:
Lipopolysaccharide (LPS, 25 ng/ml) is then added to stimulate the cells for another 16 hour incubation period in 5% CO2. IL-1b cytokine levels in the conditioned medium are then quantitated using a sandwich ELISA kit. Compounds are screened at 10, 1, 0.1, 0.01 and 0.001 μM. These same concentrations are concurrently applied to a separate group of treated cells and evaluated for possible compound-induced cytotoxicity.

Assay [16] relates to IL-1b secretion in THP-1 monocyte cell line. The conditions noted are these: LPS, FIG. 12.
In assay [17] the test system is HDAC8 protein expression. Put plainly: Western blot of HDAC8 after 24 hr treatment in Jurkat cells. For orientation: A western blot detects proteins with antibodies after separation by electrophoresis.
Source text: (§1) Western blot of HDAC8 & HDAC1 after 24 hr treatment in Jurkat cells were obtained.
The subject of assay [18] is Jurkat. Put plainly: Growth inhibition in T-cell lines (Table 6). The conditions noted are these: Homo sapiens, 72 h, 3 Day dose. It counts as cell-based.
Assay [19] relates to J.γ1. Put plainly: Growth inhibition in T-cell lines (Table 6). The class given is cell-based. The conditions noted are these: 72 h, J.γ1 (Phospholipase C-γ1 deficient), 3 Day dose.
The subject of assay [20] is P116. The experiment in a line: Growth inhibition in T-cell lines (Table 6). The class given is cell-based. The conditions noted are these: 72 h, P116 (ZAP-70 deficient), 3 Day dose.
The subject of assay [21] is J.RT3-T.5. The experiment in a line: Growth inhibition in T-cell lines (Table 6). The class given is cell-based. The conditions noted are these: 72 h, J.RT3-T.5 (TCR-β chain deficient), 3 Day dose.
In assay [22] the test system is HDAC1 levels. The conditions noted are these: Jurkat cells, 24 hr treatment, Western blot.
Source text: as §1

Each structure is given as a SMILES string. “Also recorded” adds a separate entry of the source.

For orientation: GI50 means the concentration at which growth is held to half of that of the control. Higher therefore signals less potent growth inhibition.

For `COc1ccc(Cn2ccc3ccc(C(=O)NO)cc32)cc1` [Compound 23, 1-(4-methoxy-phenylmethyl)-1H-indole-6-carboxylic acid hydroxyamide], the effect on growth result in [1] is on record as “failed to inhibit the growth; also recorded: does not inhibit growth”. Further, the “% apoptosis at 20 μM (Annexin V assay)” value in assay [2] amounted to 0%; in assay [3] it was 3%; in [4], 0%; in [5] it was 0%; in assay [6] it was 0%; in assay [7] it was 0%. The “% apoptosis at 20 μM (Annexin V assay)” value in assay [8] was determined as 15%. For the same compound, the “Apoptosis at 5 μM (%)” value in [9] (5 μM) came out at 43%; in [10] (J.γ1, 5 μM), 12%; in [11] (P116, 5 μM), 82%; in [12] (J.RT3-T.5, 5 μM), 67%. In [13] (compound 23=5 μM, thapsigargin=0.2 μM), the “compound 23 induced apoptosis with Ca2+ effector thapsigargin” value is given as “enhanced”. Also, the “compound 23 induced apoptosis with Ca2+ chelator BAPTA-AM” value in [13] (compound 23=10 μM, BAPTA 0.5 μM) is “inhibited”. In assay [14], the “Cytochrome C translocation from mitochondria to cytosol” value is “Cytochrome C translocation from mitochondria to cytosol”. Besides, the IL-1b secretion entry in assay [15] is “inhibition of IL-1b secretion”; in assay [16] it was “reduction of IL-1b secretion”. For the same compound, the HDAC8 protein levels result in assay [17] is reported as “affected”.

Consider `CN(C)Cc1c(C(=O)NCCOc2ccc(C(=O)NO)cc2)oc2ccccc12` [PCI-24781, reference compound], for which the GI50 in assay [18] worked out at 130 nM; in assay [19], 140 nM; in assay [20], 190 nM; in assay [21] it was 140 nM. Further, the “Apoptosis at 0.125 μM (%)” value was 48% in assay [9] (0.125 μM); 18% in assay [10] (J.γ1, 0.125 μM); 76% in assay [11] (P116, 0.125 μM); 32% in [12] (J.RT3-T.5, 0.125 μM). Further, in [17], the HDAC8 protein levels entry is listed as “affected”. For the same compound, the HDAC1 levels entry in [22] is recorded as “decreased”.
